Test results: BigSolDB 2.1

O=C(/C=C/C=C/c1ccc2c(c1)OCO2)N1CCCCC1
solubility (mole fraction) (in DMSO, 298.2 K): 0.0287 | solubility (mole fraction) (in DMSO, 303.2 K): 0.0303 | solubility (mole fraction) (in DMSO, 308.2 K): 0.0321 | solubility (mole fraction) (in DMSO, 313.2 K): 0.0339 | solubility (mole fraction) (in DMSO, 318.2 K): 0.0359 | solubility (mole fraction) (in PEG-400, 298.2 K): 0.0518 | solubility (mole fraction) (in PEG-400, 303.2 K): 0.0584 | solubility (mole fraction) (in PEG-400, 308.2 K): 0.0652 | solubility (mole fraction) (in PEG-400, 313.2 K): 0.0718 | solubility (mole fraction) (in PEG-400, 318.2 K): 0.0788 | solubility (mole fraction) (in ethanol, 298.2 K): 0.00899 | solubility (mole fraction) (in ethanol, 303.2 K): 0.01 | solubility (mole fraction) (in ethanol, 308.2 K): 0.011 | solubility (mole fraction) (in ethanol, 313.2 K): 0.012 | solubility (mole fraction) (in ethanol, 318.2 K): 0.0134 | solubility (mole fraction) (in ethyl acetate, 298.2 K): 0.00985 | solubility (mole fraction) (in ethyl acetate, 303.2 K): 0.011 | solubility (mole fraction) (in ethyl acetate, 308.2 K): 0.0123 | solubility (mole fraction) (in ethyl acetate, 313.2 K): 0.0137 | solubility (mole fraction) (in ethyl acetate, 318.2 K): 0.0154 | solubility (mole fraction) (in ethylene glycol, 298.2 K): 0.00386 | solubility (mole fraction) (in ethylene glycol, 303.2 K): 0.00444 | solubility (mole fraction) (in ethylene glycol, 308.2 K): 0.00515 | solubility (mole fraction) (in ethylene glycol, 313.2 K): 0.00597 | solubility (mole fraction) (in ethylene glycol, 318.2 K): 0.0067 | solubility (mole fraction) (in isopropanol, 298.2 K): 0.0123 | solubility (mole fraction) (in isopropanol, 303.2 K): 0.0136 | solubility (mole fraction) (in isopropanol, 308.2 K): 0.0149 | solubility (mole fraction) (in isopropanol, 313.2 K): 0.0164 | solubility (mole fraction) (in isopropanol, 318.2 K): 0.0182 | solubility (mole fraction) (in methanol, 298.2 K): 0.00527 | solubility (mole fraction) (in methanol, 303.2 K): 0.00584 | solubility (mole fraction) (in methanol, 308.2 K): 0.00648 | solubility (mole fraction) (in methanol, 313.2 K): 0.00719 | solubility (mole fraction) (in methanol, 318.2 K): 0.00791 | solubility (mole fraction) (in n-butanol, 298.2 K): 0.0156 | solubility (mole fraction) (in n-butanol, 303.2 K): 0.0169 | solubility (mole fraction) (in n-butanol, 308.2 K): 0.0183 | solubility (mole fraction) (in n-butanol, 313.2 K): 0.0201 | solubility (mole fraction) (in n-butanol, 318.2 K): 0.022 | solubility (mole fraction) (in propylene glycol, 298.2 K): 0.01 | solubility (mole fraction) (in propylene glycol, 303.2 K): 0.0111 | solubility (mole fraction) (in propylene glycol, 308.2 K): 0.0122 | solubility (mole fraction) (in propylene glycol, 313.2 K): 0.0134 | solubility (mole fraction) (in propylene glycol, 318.2 K): 0.0147 | solubility (mole fraction) (in sec-butanol, 298.2 K): 0.0158 | solubility (mole fraction) (in sec-butanol, 303.2 K): 0.017 | solubility (mole fraction) (in sec-butanol, 308.2 K): 0.0187 | solubility (mole fraction) (in sec-butanol, 313.2 K): 0.0206 | solubility (mole fraction) (in sec-butanol, 318.2 K): 0.0225 | solubility (mole fraction) (in transcutol, 298.2 K): 0.0797 | solubility (mole fraction) (in transcutol, 303.2 K): 0.0826 | solubility (mole fraction) (in transcutol, 308.2 K): 0.0852 | solubility (mole fraction) (in transcutol, 313.2 K): 0.0883 | solubility (mole fraction) (in transcutol, 318.2 K): 0.0917 | solubility (mole fraction) (in water, 298.2 K): 1.07e-05 | solubility (mole fraction) (in water, 303.2 K): 1.18e-05 | solubility (mole fraction) (in water, 308.2 K): 1.29e-05 | solubility (mole fraction) (in water, 313.2 K): 1.41e-05 | solubility (mole fraction) (in water, 318.2 K): 1.52e-05
